According to ChEMBL document CHEMBL3885861, “Open TG-GATES”:

Organism: Rattus norvegicus
Assay: Open TG-GATES - Regimen: Single
Format: toxicity, organism-based, Sprague-Dawley
Parameters: regimen Single, gender Male, age 6 weeks
Conditions: in vivo, po, 0 mg/kg, route gavage, dose level Control; for APTT / Bas / Eos / Fbg / Hb / Ht / Lym / MCH / MCHC / MCV / Mono / Neu / PT / Plat / RBC / Ret / WBC: tissue Blood; for KIDNEY_L / KIDNEY_R / KIDNEY_TOTAL: tissue Kidney; for LIVER: tissue Liver; for A/G / ALP / ALT / AST / BUN / CRE / Ca / Cl / DBIL / GLC / IP / K / LDH / Na / PL / RALB / TBIL / TC / TG / TP / gamma-GTP: tissue Plasma

Clc1c(Cl)c(Cl)c(Cl)c(Cl)c1Cl [PERCHLOROBENZENE]
TERMINAL_BW (3 h): 219.4 g
APTT (3 h): 19.3 s
Bas (3 h): 0.2%
Eos (3 h): 0.8%
Fbg (3 h): 218.8 mg/dL
Hb (3 h): 13.5 g/dL
Ht (3 h): 38.6%
Lym (3 h): 75.4%
MCH (3 h): 21.1 pg
MCHC (3 h): 34.9%
MCV (3 h): 60.3 fL
Mono (3 h): 3.2%
Neu (3 h): 18.6%
PT (3 h): 11.9 s
Plat (3 h): 122 x10_4/uL
RBC (3 h): 639.6 x10_4/ul
Ret (3 h): 7.1%
WBC (3 h): 76.5 x10_2/uL
KIDNEY_L (3 h): 1 g
KIDNEY_R (3 h): 1 g
KIDNEY_TOTAL (3 h): 2 g
LIVER (3 h): 9.9 g
A/G (3 h): 1.7
ALP (3 h): 1008.2 IU/L
ALT (3 h): 42.8 IU/L
AST (3 h): 78 IU/L
BUN (3 h): 11.4 mg/dL
CRE (3 h): 0.4 mg/dL
Ca (3 h): 10.9 mg/dL
Cl (3 h): 103.4 meq/L
DBIL (3 h): 0.07 mg/dL
GLC (3 h): 187.2 mg/dL
IP (3 h): 8.4 mg/dL
K (3 h): 4 meq/L
LDH (3 h): 216.2 IU/L
Na (3 h): 140.6 meq/L
PL (3 h): 156.8 mg/dL
RALB (3 h): 3.5 g/dL
TBIL (3 h): 0.1 mg/dL
TC (3 h): 76.8 mg/dL
TG (3 h): 103.4 mg/dL
TP (3 h): 5.5 g/dL
gamma-GTP (3 h): 1 IU/L
TERMINAL_BW (6 h): 219.4 g
APTT (6 h): 19.5 s
Bas (6 h): 0.2%
Eos (6 h): 0.6%
Fbg (6 h): 230.4 mg/dL
Hb (6 h): 13.5 g/dL
Ht (6 h): 38.4%
Lym (6 h): 79.6%
MCH (6 h): 21.7 pg
MCHC (6 h): 35.3%
MCV (6 h): 61.5 fL
Mono (6 h): 3.2%
Neu (6 h): 14.8%
PT (6 h): 11.7 s
Plat (6 h): 134.1 x10_4/uL
RBC (6 h): 624 x10_4/ul
Ret (6 h): 7.2%
WBC (6 h): 106.3 x10_2/uL
KIDNEY_L (6 h): 1 g
KIDNEY_R (6 h): 1 g
KIDNEY_TOTAL (6 h): 2 g
LIVER (6 h): 9.6 g
A/G (6 h): 1.5
ALP (6 h): 958.2 IU/L
ALT (6 h): 32 IU/L
AST (6 h): 70.6 IU/L
BUN (6 h): 9.2 mg/dL
CRE (6 h): 0.4 mg/dL
Ca (6 h): 10.6 mg/dL
Cl (6 h): 102.6 meq/L
DBIL (6 h): 0.06 mg/dL
GLC (6 h): 192.8 mg/dL
IP (6 h): 9.4 mg/dL
K (6 h): 4.2 meq/L
LDH (6 h): 216.4 IU/L
Na (6 h): 140.2 meq/L
PL (6 h): 149.6 mg/dL
RALB (6 h): 3.3 g/dL
TBIL (6 h): 0.1 mg/dL
TC (6 h): 77.6 mg/dL
TG (6 h): 71.2 mg/dL
TP (6 h): 5.6 g/dL
gamma-GTP (6 h): 1.2 IU/L
TERMINAL_BW (9 h): 215.4 g
APTT (9 h): 21.3 s
Bas (9 h): 0.2%
Eos (9 h): 1%
Fbg (9 h): 226.6 mg/dL
Hb (9 h): 13.5 g/dL
Ht (9 h): 38.6%
Lym (9 h): 75%
MCH (9 h): 21.1 pg
MCHC (9 h): 35%
MCV (9 h): 60.2 fL
Mono (9 h): 2.6%
Neu (9 h): 19.8%
PT (9 h): 12.3 s
Plat (9 h): 128.3 x10_4/uL
RBC (9 h): 641.8 x10_4/ul
Ret (9 h): 7%
WBC (9 h): 90.9 x10_2/uL
KIDNEY_L (9 h): 1 g
KIDNEY_R (9 h): 0.9 g
KIDNEY_TOTAL (9 h): 1.9 g
LIVER (9 h): 8.7 g
A/G (9 h): 1.6
ALP (9 h): 849.2 IU/L
ALT (9 h): 28.4 IU/L
AST (9 h): 62.4 IU/L
BUN (9 h): 9.4 mg/dL
CRE (9 h): 0.3 mg/dL
Ca (9 h): 10.7 mg/dL
Cl (9 h): 103.6 meq/L
DBIL (9 h): 0.068 mg/dL
GLC (9 h): 198.8 mg/dL
IP (9 h): 10.6 mg/dL
K (9 h): 3.8 meq/L
LDH (9 h): 175.8 IU/L
Na (9 h): 142 meq/L
PL (9 h): 129.4 mg/dL
RALB (9 h): 3.3 g/dL
TBIL (9 h): 0.1 mg/dL
TC (9 h): 67.6 mg/dL
TG (9 h): 46.6 mg/dL
TP (9 h): 5.5 g/dL
gamma-GTP (9 h): 1 IU/L
TERMINAL_BW (24 h): 227.7 g
APTT (24 h): 18.7 s
Bas (24 h): 0.6%
Eos (24 h): 0.8%
Fbg (24 h): 216.6 mg/dL
Hb (24 h): 13.7 g/dL
Ht (24 h): 39.5%
Lym (24 h): 80.8%
MCH (24 h): 21.1 pg
MCHC (24 h): 34.8%
MCV (24 h): 60.6 fL
Mono (24 h): 2.2%
Neu (24 h): 14.8%
PT (24 h): 11.9 s
Plat (24 h): 129.9 x10_4/uL
RBC (24 h): 651.8 x10_4/ul
Ret (24 h): 6.2%
WBC (24 h): 90.7 x10_2/uL
KIDNEY_L (24 h): 1.1 g
KIDNEY_R (24 h): 1.1 g
KIDNEY_TOTAL (24 h): 2.1 g
LIVER (24 h): 10.3 g
A/G (24 h): 1.6
ALP (24 h): 981.2 IU/L
ALT (24 h): 31.2 IU/L
AST (24 h): 70.6 IU/L
BUN (24 h): 13.6 mg/dL
CRE (24 h): 0.4 mg/dL
Ca (24 h): 10.9 mg/dL
Cl (24 h): 103 meq/L
DBIL (24 h): 0.06 mg/dL
GLC (24 h): 192.6 mg/dL
IP (24 h): 7.5 mg/dL
K (24 h): 4 meq/L
LDH (24 h): 203.2 IU/L
Na (24 h): 141.2 meq/L
PL (24 h): 131.4 mg/dL
RALB (24 h): 3.4 g/dL
TBIL (24 h): 0.1 mg/dL
TC (24 h): 70.2 mg/dL
TG (24 h): 68.2 mg/dL
TP (24 h): 5.5 g/dL
gamma-GTP (24 h): 1.2 IU/L
